Measured values from patent publication US20100160351A1, “PHARMACEUTICAL COMPOSITIONS AND METHODS FOR TREATING HYPERURICEMIA AND RELATED DISORDERS” (NUON THERAPEUTICS, INC., priority 2008, published 2010).
“And” between values parts separate entries of the source, which are not always exact repeats. Equal entries are not always repeated.

What was measured:
[1] = test system: monosodium urate (MSU) crystal-induced air pouch inflammation; test: Air Pouch Model 3: MSU crystal air pouch, rodent model of gout; format: in vivo, male Sprague-Dawley rats; details: 30 min before MSU; for Average Exudate Volume, Mean / Average Plasma Extravasation, OD620 nm, Mean / Total WBC in Sample, Mean / WBC in exudate, Mean: 4 h after MSU
Protocol: The objective of this study was to evaluate the anti-inflammatory potency of Tranilast. This evaluation was carried out in male Sprague-Dawley rats in a rodent model of gout. The animals were injected subcutaneously with 20 ml of sterile air, followed three days later by a supplemental injection with 20 ml of sterile air. Six days after the initial sterile air injection, the rats were injected intravenously with Evan's Blue and pretreated for thirty minutes with oral administration of 25 mg/kg, 50 mg/kg, 100 mg/kg, 200 mg/kg, or 300 mg/kg tranilast. After the pretreatment period, the rats were injected with 150 mg of monosodium urate (MSU) crystals (10 mg/ml) into the air pouch. Four hours later, the air pouch was injected with 5 ml heparinized saline and the entire contents of the air pouch removed, recording the total volume. The air pouch contents were evaluated for plasma extravasation and total white blood cell (WBC) count.
(§1) On day 0 the rats were anesthetized in a biological cabinet, the nape of the neck was cleansed with 70% isopropanol followed by iodine tincture (VEDCO). Twenty ml sterile (0.22 μm, Millipore, Cat. SLGSV255F) air was injected subcutaneously using a 23 G×2 inch needle fixed to a 20 ml syringe. The rats were returned to routine housing. No adverse reactions were observed.
as §1, with “day 3” for “day 0”, “μm, Fisher Scientific,” for “μm, Millipore,”, “Cat. 09-720-3)” for “Cat. SLGSV255F)”
On day 6 the rats were weighed (Mettler, Model PE3000, SN: F69474) and injected intravenously injected with 2 ml/kg Evans Blue. The animals were dosed orally with 0.5 ml/kg, 1 ml/kg, 2 ml/kg, 4 ml/kg tranilast, or 6 ml/kg tranilast or 6 ml/kg vehicle.
Thirty minutes after test material administration, the rats were anesthetized and six groups (2-7) were injected into the air pouch with 15 ml MSU using a 19 G×2 inch needle fitted to a 20 ml syringe. Group 1 was injected with 15 ml saline. The rats were returned to their cages, no adverse affects were observed.
Four hours after MSU/saline injection, the rats were anesthetized and 5 ml 10 U/ml heparinized saline was injected into the air pouch. The air pouch was gently massaged, the contents immediately removed using a 14 G×1 inch needle fitted to a 6 ml syringe, and the exudate volume recorded. An aliquot of the exudate was transferred to heparin-treated microtainer tubes (Becton Dickinson, Cat. 365958) for white blood cell (WBC) counting. The remainder of the exudate was centrifuged (Hermle Labrotechnik, Model Z200A, SN: 44060036), the supernatants removed and evaluated at OD620nm (Spectronic Unicam, Model 4000 1/4, SN: 3SGD003006) for plasma extravasation.

[2] = test system: serum uric acid (sUA) levels; test: Study A3006GT: phase 2 crossover, sUA in healthy subjects with screening sUA of at least 7.1 mg/dL; tranilast, febuxostat, combination; format: in vivo, human
Protocol: Study A3006GT was a phase 2, randomized, double-blind, 3-period, 3-treatment crossover trial. The primary objective was to compare the effects of three treatments on serum uric acid (sUA) levels in healthy subjects with a screening sUA level of at least 7.1 mg/dL. The three treatments were: 300 mg QD tranilast and 40 mg QD febuxostat (C); 300 mg QD tranilast alone (T); 40 mg QD febuxostat alone (F).
The study was conducted in 23 subjects. […] With two exceptions, every subject provided data for all three treatments. Subject 1001 completed only the first two periods of the study (C and F). […] Therefore, the period 3 data for subject 1024 are excluded from the analyses presented here.
Two endpoints were considered: change from baseline to day 7 in sUA; and percent change from baseline to day 7 in sUA. For each endpoint, an analysis of variance (ANOVA) model for a three-period crossover trial was used. The model included effects for sequence, subject within sequence, treatment, and period. The sequence effect was tested using the subject within sequence mean square as the error term. Two pairwise comparisons between treatments were tested: C−F and C−T. In addition, the two-sided 95% confidence interval for each of these differences was computed.
For each subject for which results were available from all three treatments, the difference between the change for C and the sum of the changes for F and T was computed. Although the true magnitude of the difference between these two values is not known, a conservative null hypothesis is that this difference should be equally likely to be greater than or less than zero. The sign test and the Wilcoxon signed rank test were used to test this null hypothesis.
Using the change for each subject as the dependent variable, an analysis of variance (ANOVA) model for a three-period crossover trial was fit. This model included effects for sequence, subject within sequence, treatment, and period. Using the least squares estimates of the mean changes for each treatment, along with the 3×3 covariance matrix of these three estimates, the mean and SD of the difference between C and F+T was estimated, as follows.

[3] = end of 1-week treatment (day 7), C: 300 mg QD tranilast + 40 mg QD febuxostat, T: 300 mg QD, F: 40 mg QD
[4] = individual subjects, per study period, end of the 1-week treatment period

COc1ccc(/C=C/C(=O)Nc2ccccc2C(=O)O)cc1OC [Tranilast, 2-[[3-(3,4-dimethoxyphenyl)-1-oxo-2-propenyl]amino]benzoic acid]
Average Exudate Volume, Mean ([1]; 25 mg/kg oral): 6.9 mL | Average Plasma Extravasation, OD620 nm, Mean ([1]; 25 mg/kg oral): 1.181 | Total WBC in Sample, Mean ([1]; 25 mg/kg oral): 204170000 | WBC in exudate, Mean ([1]; 25 mg/kg oral): 31260000 cells/ml | Average Exudate Volume, Mean ([1]; 50 mg/kg oral): 4.8 mL | Average Plasma Extravasation, OD620 nm, Mean ([1]; 50 mg/kg oral): 1.071 | Total WBC in Sample, Mean ([1]; 50 mg/kg oral): 96948000 | WBC in exudate, Mean ([1]; 50 mg/kg oral): 18900000 cells/ml | Average Exudate Volume, Mean ([1]; 100 mg/kg oral): 6.4 mL | Average Plasma Extravasation, OD620 nm, Mean ([1]; 100 mg/kg oral): 1.276 | Total WBC in Sample, Mean ([1]; 100 mg/kg oral): 145408000 | WBC in exudate, Mean ([1]; 100 mg/kg oral): 27440000 cells/ml | Average Exudate Volume, Mean ([1]; 200 mg/kg oral): 6.2 mL | Average Plasma Extravasation, OD620 nm, Mean ([1]; 200 mg/kg oral): 1.033 | Total WBC in Sample, Mean ([1]; 200 mg/kg oral): 71692000 | WBC in exudate, Mean ([1]; 200 mg/kg oral): 12000000 cells/ml | Average Exudate Volume, Mean ([1]; 300 mg/kg oral): 5.6 mL | Average Plasma Extravasation, OD620 nm, Mean ([1]; 300 mg/kg oral): 0.611 | Total WBC in Sample, Mean ([1]; 300 mg/kg oral): 29232000 | WBC in exudate, Mean ([1]; 300 mg/kg oral): 5880000 cells/ml | inhibition of plasma extravasation ([1]; highest dose 300 mg/kg oral): 65% | inhibition of white blood cell infiltration ([1]; highest dose 300 mg/kg oral): 90% | effect on MSU-induced parameters (plasma extravasation, leukocyte infiltration) ([1]; oral 25-300 mg/kg): dose-dependent inhibition | sUA Change from Baseline, Max [2, 3]: -0.90 mg/dL | sUA Change from Baseline, Mean [2, 3]: -1.60 mg/dL | sUA Change from Baseline, Median [2, 3]: -1.40 mg/dL | sUA Change from Baseline, Min [2, 3]: -3.50 mg/dL | sUA Percent Change from Baseline, Max [2, 3]: −9.47% | sUA Percent Change from Baseline, Mean [2, 3]: −21.20% | sUA Percent Change from Baseline, Median [2, 3]: −18.61% | sUA Percent Change from Baseline, Min [2, 3]: −47.95% | sUA Change from baseline [2, 4]: −1.4 mg/dL (2×) and −1.1 mg/dL (3×) and −2.1 mg/dL and −2.2 mg/dL (2×) and −1.7 mg/dL (3×) and −1.9 mg/dL and −0.9 mg/dL (2×) and −1.2 mg/dL (3×) and −1.0 mg/dL (2×) and −3.2 mg/dL and −3.5 mg/dL and −1.6 mg/dL | sUA Percent Change from baseline [2, 4]: −17.50% and −14.86% and −30.43% and −27.85% and −16.42% and −26.98% and −22.09% and −13.64% and −9.47% and −26.15% and −16.00% and −14.29% (2×) and −10.87% and −30.14% and −14.46% and −35.56% and −47.95% and −20.51% and −19.72% and −15.38% and −21.79%
